In PubChem BioAssay (NCI):
Several values for one entry are separate records, joined by “and”; a condition that tells them apart may be missing. Equal entries are not always repeated.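 A five-concentration, 48-hour dose response in 96-well plates underlies each endpoint, interpolated linearly between surrounding concentrations. The concentration for 50% growth inhibition is given as GI50. TGI: total growth inhibition.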

Experiments:
Assay in all cases: inhibition of tumour cell growth, NCI panel, 48 h
HT29 colon = test system: HT29 colon
K-562 leukemia = test system: K-562 leukemia
OVCAR-4 ovarian = test system: OVCAR-4 ovarian
HL-60(TB) leukemia = test system: HL-60(TB) leukemia
A549 NSCLC = test system: A549 NSCLC
IGROV1 ovarian = test system: IGROV1 ovarian
A498 renal = test system: A498 renal
SK-MEL-2 melanoma = test system: SK-MEL-2 melanoma
HS 578T breast = test system: HS 578T breast

Row | Compound | TGI (HT29 colon) | TGI (K-562 leukemia) | TGI (OVCAR-4 ovarian) | TGI (HL-60(TB) leukemia) | TGI (A549 NSCLC) | TGI (IGROV1 ovarian) [µM] | TGI (A498 renal) | TGI (SK-MEL-2 melanoma) | GI50 (HT29 colon) | GI50 (K-562 leukemia) [µM] | GI50 (OVCAR-4 ovarian) [µM] | GI50 (HS 578T breast) [µM] | TGI (HS 578T breast) [µM] | GI50 (A549 NSCLC) | GI50 (IGROV1 ovarian) [µM] | GI50 (SK-MEL-2 melanoma) [µM] | GI50 (HL-60(TB) leukemia) [µM] | GI50 (A498 renal) [µM]
1 | O=C(/C=C/c1ccc([N+](=O)[O-])o1)N1CCN(Cc2ccccc2)CC1 | 31.5 µM | 26.2 µM | 29.7 µM | 18.4 µM | 35.2 µM | 32.1 | 29.2 µM |  |  |  |  |  |  |  |  |  |  | 
2 | COc1ccc(-c2onc(-c3ccc([N+](=O)[O-])cc3)c2C2=NCCN2)cc1 | > 100 µM | > 100 µM | > 100 µM | > 100 µM | > 100 µM | > 100 |  | > 100 µM |  |  |  |  |  |  |  |  |  | 
3 | CCNC(=O)CCN(C(=O)O)S(=O)(=O)c1ccc(NC(=O)c2ccccc2)cc1 | > 100 µM | > 100 µM | > 100 µM | > 100 µM | > 100 µM | > 100 | > 100 µM | > 100 µM |  |  |  |  |  |  |  |  |  | 
4 | O=[N+]([O-])c1cccc(C2N3CCCCC3[C@@H]3c4[nH]c5ccccc5c4CCN23)c1 (stereo not given in full) | 19.8 µM | 19.6 µM | 32.2 µM | 29 µM | 45.5 µM | 39.2 | 29.5 µM | 22 µM |  |  |  |  |  |  |  |  |  | 
5 | COC(=O)c1s/c(=N\C(=S)N(C)C)n(-c2ccccc2)c1C(=O)OC | > 100 µM | > 100 µM | > 100 µM | > 100 µM | > 100 µM | > 100 | > 100 µM | > 100 µM |  |  |  |  |  |  |  |  |  | 
6 | COc1cc(/C=C(\C#N)C(=O)c2ccccc2)ccc1OCc1ccccc1 |  | > 100 µM | > 100 µM | > 100 µM | > 100 µM | > 100 |  | > 100 µM |  |  |  |  |  |  |  |  |  | 
7 | CCOC(=O)c1cc(C#N)c(=O)n(/N=C(\C)c2ccncc2)c1O | > 100 µM | > 100 µM | > 100 µM |  | > 100 µM | > 100 |  | > 100 µM | > 100 µM | > 100 | > 100 | > 100 | > 100 | > 100 µM | > 100 | > 100 |  | 
8 | CCCCc1c2c(nc3c1CCC/C3=C\c1ccccc1)C(=O)CCC2 | 31.4 µM | 85.2 µM | 67.9 µM | 74.3 µM | 62 µM | 42.5 | 61.4 µM | 33.9 µM |  |  |  |  |  |  |  |  |  | 
9 | Cc1[nH]c2ccccc2c1C1Cc2ccccc2N1C(=O)/C=C\C(=O)O (stereo not given) | > 100 µM | > 100 µM | > 100 µM | 68.2 µM | > 100 µM | > 100 | > 100 µM | 39.6 µM |  |  |  |  |  |  |  |  |  | 
10 | CCCCCCCCC[C@@H]1CC(=O)OCC2OC(O[C@H](CCCCCCCCC)CC(=O)OCC3OC(O[C@H](CCCCCCCCC)CC(=O)OCC4OC(O1)C(O)C(O)C4O)C(O)C(O)C3O)C(O)C(O)C2O (stereo not given in full) | 24.3 µM | 15.1 µM | 32.3 µM | 31.8 µM | 29.4 µM | 28.2 | 27.9 µM | 22.3 µM |  |  |  |  |  |  |  |  |  | 
11 | NNC(=O)/C(=C/c1ccc(Cl)c(Cl)c1)NC(=O)c1ccccc1 | > 100 µM |  | > 100 µM | > 100 µM | > 100 µM | > 100 |  | > 100 µM |  |  |  |  |  |  |  |  |  | 
12 | O=S(=O)(NC1=NCCN1C(=S)SN1CCn2c1nsc2=S)c1ccc(Br)cc1 | > 100 µM | 83.2 µM | > 100 µM | 60.1 µM | > 100 µM | 95 | > 100 µM | 46.4 µM | 42.5 µM | 24.6 | 49.2 | 21.4 | 67.2 | > 100 µM | 30.7 | 18.7 | 24.3 | 33.7
13 | COc1ccc([N+]2=NC(c3ccc([N+](=O)[O-])cc3)=NN(c3ccccc3)C2)cc1 | > 100 µM | 97.3 µM and > 100 µM | 75.5 µM and > 100 µM | 83.2 µM and 69.3 µM | > 100 µM | > 100 | > 100 µM |  |  |  |  |  |  |  |  |  |  | 
14 | O=C1OC(CC(=O)c2ccc(Cl)c(Cl)c2)C(Cl)=C1Cl (stereo not given) | > 100 µM | > 100 µM | > 100 µM | > 100 µM | > 100 µM | > 100 | > 100 µM | > 100 µM |  |  |  |  |  |  |  |  |  | 
15 | CC1=C(C(=O)Nc2ccccc2C)C(c2ccc(Cl)c(Cl)c2)C(C(=O)Nc2ccccc2C)=C(C)N1 | 57.7 µM | 79.8 µM | > 100 µM | 45.4 µM | > 100 µM | 93.1 | 61.8 µM | 33.6 µM |  |  |  |  |  |  |  |  |  | 
16 | Cc1c[nH]c2c(O)cc3c(c12)[C@H](CCl)CN3C(=O)c1cc2cc(NC(=O)Nc3ccc4[nH]c(C(=O)N5C[C@@H](CCl)c6c5cc(O)c5[nH]cc(C)c65)cc4c3)ccc2[nH]1 | > 100 µM and 0.00887 µg/mL |  | 48 µM |  | 75.5 µM and 0.00228 µg/mL | 44 | 75.7 nM and 15 µM and 0.00215 µg/mL | 89.3 µM and 8.9e-06 µg/mL and 0.00276 µg/mL | 0.00416 ng/mL |  |  | 0.0252 |  | 1.31 nM and 0.000888 µg/mL | 0.0255 |  |  | 

Row | Compound | TGI (HT29 colon) | TGI (K-562 leukemia) | TGI (OVCAR-4 ovarian) | TGI (HL-60(TB) leukemia) | TGI (A549 NSCLC) | TGI (IGROV1 ovarian) [µM] | TGI (A498 renal) | TGI (SK-MEL-2 melanoma) | GI50 (HT29 colon) | GI50 (K-562 leukemia) [µM] | GI50 (OVCAR-4 ovarian) [µM] | GI50 (HS 578T breast) [µM] | TGI (HS 578T breast) [µM] | GI50 (A549 NSCLC) | GI50 (IGROV1 ovarian) [µM] | GI50 (SK-MEL-2 melanoma) [µM] | GI50 (HL-60(TB) leukemia) [µM] | GI50 (A498 renal) [µM]
17 | O=C1c2ccccc2-c2cccc3ccc(Cc4ccc5ccccc5c4)c1c23 | > 100 µM | > 100 µM | > 100 µM | > 100 µM | > 100 µM | > 100 |  | > 100 µM |  |  |  |  |  |  |  |  |  | 
18 | O=S(=O)(N/N=C/c1ccc(/C=N/NS(=O)(=O)c2ccccc2)cc1)c1ccccc1 | > 100 µM | 98.5 µM | > 100 µM | 53.3 µM | > 100 µM | > 100 | > 100 µM | > 100 µM |  |  |  |  |  |  |  |  |  | 
19 | CC(=O)[O-].CC(=O)[O-].[Pt+2].c1cscn1.c1cscn1 | > 100 µM | > 100 µM | > 100 µM | > 100 µM | > 100 µM | > 100 | > 100 µM | > 100 µM | > 100 µM | 42.7 | 74.3 | > 100 | > 100 | 45.1 µM | > 100 | > 100 | 36.4 | > 100
20 | CCN(CC)c1cc2c3c(c1)CCCN3CCC2 | > 10 µM | > 10 µM | > 10 µM | > 10 µM | > 10 µM | > 10 | > 10 µM | > 10 µM |  |  |  |  | > 10 |  |  |  |  | 
21 | COC(=O)C1C(C(=O)OC)C2(OC)c3ccccc3-c3ccccc3C12 (stereo not given) | > 100 µM | 76.9 µM | > 100 µM | 25.3 µM | > 100 µM | > 100 | > 100 µM | 54.5 µM |  |  |  |  |  |  |  |  |  | 
22 | CCOC(=O)NC(=O)c1cn(CC(=O)NCC(=O)NCC(=O)NCCCN2CCN(CCCNC(=O)CNC(=O)CNC(=O)Cn3cc(C(=O)NC(=O)OCC)c(=O)[nH]c3=O)CC2)c(=O)[nH]c1=O | > 100 µM | > 100 µM |  | > 100 µM | > 100 µM | > 100 | > 100 µM | > 100 µM |  |  |  |  |  |  |  |  |  | 
23 | COc1c2nc(CCl)[nH]c(=O)c2c(OC)c2nc(CCl)[nH]c(=O)c12 | > 100 µM | > 100 µM | > 100 µM | > 100 µM | > 100 µM | > 100 |  | > 100 µM |  |  |  |  |  |  |  |  |  | 
24 | CC(C)CS(=O)(=O)/C(=C(\c1ccc(Br)cc1)S(=O)(=O)CC(C)C)c1ccc(Br)cc1 | > 100 µM | > 100 µM | > 100 µM |  | > 100 µM | 40.9 | 31.6 µM | > 100 µM |  |  |  |  |  |  |  |  |  | 
25 | Cc1c(NC(=O)C(C)(C)Br)c(=O)oc2c(C)c3occc(=O)c3cc12 | > 100 µM | > 100 µM | > 100 µM | > 100 µM | > 100 µM | > 100 | 66.3 µM | > 100 µM |  |  |  |  |  |  |  |  |  | 
26 | Cc1cc(Cl)ccc1NC(=O)CCCC(=O)C1CCCC1=O (stereo not given) | > 100 µM | > 100 µM | > 100 µM | > 100 µM | > 100 µM | > 100 | > 100 µM | > 100 µM |  |  |  |  |  |  |  |  |  | 
27 | CC(=O)c1cccc(N2COC(C)(C)c3nc4ccccc4n3C2)c1 | > 100 µM | > 100 µM | > 100 µM | > 100 µM | > 100 µM | > 100 | > 100 µM | > 100 µM |  |  |  |  |  |  |  |  |  | 
28 | CC/C(C)=C1\CCC(CN2CCOCC2)C1=O (stereo not given) | 39.9 µM | > 100 µM | 31.7 µM | 44 µM | 41.6 µM | 38.1 | 39.1 µM | 32 µM |  |  |  |  |  |  |  |  |  | 
29 | CC(=O)OCC1OC(N2C(=O)C(=O)c3cc(C)ccc32)C(OC(C)=O)C(OC(C)=O)C1OC(C)=O (stereo not given) | > 100 µM | > 100 µM | > 100 µM | 59.5 µM | > 100 µM | > 100 | > 100 µM | > 100 µM |  |  |  |  |  |  |  |  |  | 
30 | O=[N+]([O-])c1cccc(/C=N\NS(=O)(=O)c2ccc(Cl)cc2)c1O | > 100 µM | > 100 µM | > 100 µM | > 100 µM | > 100 µM | > 100 | > 100 µM | > 100 µM |  |  |  |  |  |  |  |  |  | 
31 | COc1ccc(NC(=O)C(=O)C(C(=O)c2ccccc2)C2OC(=O)c3ccccc32)c([N+](=O)[O-])c1 (stereo not given) | > 100 µM | > 100 µM | > 100 µM | > 100 µM | > 100 µM | > 100 | > 100 µM | > 100 µM |  |  |  |  |  |  |  |  |  | 
32 | CCOC(=O)C(N)C[S][Sn]([CH3])([CH3])[Cl] (stereo not given) | > 100 µM | > 100 µM | > 100 µM | > 77.4 µM | > 100 µM | > 100 |  | > 100 µM | > 100 µM | 39.6 | > 100 |  |  | > 100 µM | > 100 | > 100 | > 51.4 | 
